Nine compounds from US20140249135A1, “PIM KINASE INHIBITORS AND METHODS OF THEIR USE” (NOVARTIS AG, priority 2007, published 2014) can be followed below.

Where two headings read alike, the source gives them in different places. Some results are limits rather than exact numbers.

In assay [1] the target is Pim1 kinase (Homo sapiens, UniProt P11309). The assay can be described thus: Pim1 ATP depletion assay.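 Also: Luciferase-luciferin luminescence readout of residual ATP after PIM1 transfers phosphate to a peptide substrate, 40 µM ATP added, reaction run to roughly half ATP consumption.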 The format is biochemical. The note with it: Pim1 ATP depletion assay.
Sequence of Pim1 kinase (P11309 whole entry): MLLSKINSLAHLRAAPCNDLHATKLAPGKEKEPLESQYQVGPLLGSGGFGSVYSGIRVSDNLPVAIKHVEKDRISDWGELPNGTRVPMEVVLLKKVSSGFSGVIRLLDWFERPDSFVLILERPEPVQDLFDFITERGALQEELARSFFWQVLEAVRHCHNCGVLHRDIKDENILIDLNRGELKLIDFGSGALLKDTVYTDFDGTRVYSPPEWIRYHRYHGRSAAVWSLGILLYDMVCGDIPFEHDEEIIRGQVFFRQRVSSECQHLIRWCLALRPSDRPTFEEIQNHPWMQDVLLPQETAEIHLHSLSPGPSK
Assay [2] concerns the target KDR kinase (Homo sapiens, UniProt P35968). The assay can be described thus: KDR AlphaScreen assay. The note with it: KDR IC50 (μM). In general terms: Alpha assays give light when donor and acceptor beads are brought close together.
Assay [3] has as its target Pim3 kinase (Homo sapiens, UniProt Q86V86). Briefly: Pim3 ATP depletion assay. It counts as biochemical.
In assay [4] the target is Pim2 kinase (Homo sapiens, UniProt Q9P1W9). The assay can be described thus: Pim2 ATP depletion assay.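 Also: Luciferase-based luminescent readout of ATP remaining after PIM2 phosphorylates a BAD peptide, final 5 nM enzyme, 4 µM ATP, 10 µM peptide, 2.5% DMSO, run to roughly half ATP consumption.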 It counts as biochemical.
Sequence of Pim2 kinase (Q9P1W9 whole entry): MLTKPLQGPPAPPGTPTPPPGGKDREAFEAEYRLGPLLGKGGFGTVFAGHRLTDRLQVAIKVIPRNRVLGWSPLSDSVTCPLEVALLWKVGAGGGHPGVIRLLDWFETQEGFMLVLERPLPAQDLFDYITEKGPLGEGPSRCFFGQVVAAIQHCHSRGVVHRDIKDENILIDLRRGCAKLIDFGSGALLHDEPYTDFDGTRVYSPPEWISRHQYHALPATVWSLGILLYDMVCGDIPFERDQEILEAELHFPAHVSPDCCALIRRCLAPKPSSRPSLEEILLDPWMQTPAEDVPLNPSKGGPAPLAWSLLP

Sequence of KDR kinase (P35968 20-1356): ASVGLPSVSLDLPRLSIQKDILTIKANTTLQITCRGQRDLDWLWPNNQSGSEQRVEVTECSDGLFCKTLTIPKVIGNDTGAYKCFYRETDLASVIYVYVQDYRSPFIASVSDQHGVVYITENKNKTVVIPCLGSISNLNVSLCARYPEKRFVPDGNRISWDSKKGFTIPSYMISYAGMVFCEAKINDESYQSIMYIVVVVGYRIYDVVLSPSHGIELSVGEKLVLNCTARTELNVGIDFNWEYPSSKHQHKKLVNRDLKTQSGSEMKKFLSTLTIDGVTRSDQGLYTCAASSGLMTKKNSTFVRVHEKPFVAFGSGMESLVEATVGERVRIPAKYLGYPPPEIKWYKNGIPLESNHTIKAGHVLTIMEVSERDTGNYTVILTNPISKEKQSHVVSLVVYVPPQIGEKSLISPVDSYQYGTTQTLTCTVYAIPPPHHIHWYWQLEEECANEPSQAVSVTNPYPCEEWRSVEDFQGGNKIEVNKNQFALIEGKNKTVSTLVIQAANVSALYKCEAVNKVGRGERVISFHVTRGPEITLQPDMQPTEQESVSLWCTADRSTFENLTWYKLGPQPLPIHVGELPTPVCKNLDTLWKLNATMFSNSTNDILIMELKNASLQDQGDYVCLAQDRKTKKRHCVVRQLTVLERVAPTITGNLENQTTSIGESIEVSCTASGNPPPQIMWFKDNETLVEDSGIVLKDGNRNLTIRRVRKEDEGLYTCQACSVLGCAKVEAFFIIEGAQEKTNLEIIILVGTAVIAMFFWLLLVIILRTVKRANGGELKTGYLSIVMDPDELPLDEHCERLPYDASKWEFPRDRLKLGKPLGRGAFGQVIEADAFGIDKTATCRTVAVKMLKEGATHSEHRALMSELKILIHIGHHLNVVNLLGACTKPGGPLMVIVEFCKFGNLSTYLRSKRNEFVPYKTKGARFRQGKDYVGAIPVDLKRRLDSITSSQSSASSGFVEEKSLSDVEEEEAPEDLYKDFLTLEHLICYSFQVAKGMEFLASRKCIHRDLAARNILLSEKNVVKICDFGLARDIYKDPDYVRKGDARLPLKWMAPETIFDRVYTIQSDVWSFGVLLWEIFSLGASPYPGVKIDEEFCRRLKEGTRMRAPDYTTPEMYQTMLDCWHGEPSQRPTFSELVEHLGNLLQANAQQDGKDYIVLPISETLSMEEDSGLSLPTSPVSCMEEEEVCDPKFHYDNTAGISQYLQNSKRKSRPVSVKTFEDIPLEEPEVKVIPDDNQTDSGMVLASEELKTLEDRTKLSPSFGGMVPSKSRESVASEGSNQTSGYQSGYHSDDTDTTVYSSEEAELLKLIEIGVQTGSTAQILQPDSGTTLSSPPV

As to `Nc1ccc(-c2cncc(O)n2)nc1C(=O)Nc1cnccc1N1CCC[C@H](N)C1` [Example 522, 3-Amino-6-(6-hydroxy-pyrazin-2-yl)-pyridine-2-carboxylic acid (3-amino-3,4,5,6-tetrahydro-2H-[1,4′]bipyridinyl-3′-yl)-amide], the IC50 in assay [1] (read-out: IC50 (μM) PIM1) was less than 1 µM; in assay [2], 1 to 10 µM; in assay [3] (read-out: IC50 (μM) PIM3), less than 1 µM; in assay [4] (read-out: IC50 (μM) PIM2) it was less than 1 µM.
For the compound `CC(C)COc1cncc(-c2ccc(N)c(C(=O)Nc3cnccc3N3CCC[C@H](N)C3)n2)n1` [Example 523, 3-Amino-6-(6-isobutoxy-pyrazin-2-yl)-pyridine-2-carboxylic acid (3-amino-3,4,5,6-tetrahydro-2H-[1,4′]bipyridinyl-3′-yl)-amide], the IC50 in assay [1] (read-out: IC50 (μM) PIM1) was less than 1 µM; in assay [2], 10 to 25 µM; in assay [3] (read-out: IC50 (μM) PIM3), less than 1 µM; in assay [4] (read-out: IC50 (μM) PIM2) it was less than 1 µM.
Turning to `Nc1ccc(-c2ccccc2)nc1C(=O)Nc1cnccc1N1CCC[C@H](N)C1` [Example 524, 3-Amino-6-phenyl-pyridine-2-carboxylic acid (3-amino-3,4,5,6-tetrahydro-2H-[1,4′]bipyridinyl-3′-yl)-amide], the half-inhibitory concentration (IC50) in assay [1] (read-out: IC50 (μM) PIM1) was less than 1 µM; in assay [2], 1 to 10 µM; in assay [3] (read-out: IC50 (μM) PIM3) it was less than 1 µM; in assay [4] (read-out: IC50 (μM) PIM2), less than 1 µM.
As to `CSc1nc(N)cc(-c2ccncc2NC(=O)c2nc(-c3cc(C(=O)NC(C)C)ccc3F)ccc2N)n1` [Example 534, 3-Amino-6-(2-fluoro-5-isopropylcarbamoyl-phenyl)-pyridine-2-carboxylic acid [4-(6-amino-2-methylsulfanyl-pyrimidin-4-yl)-pyridin-3-yl]-amide], the IC50 in assay [1] (read-out: IC50 (μM) PIM1) is less than 1 µM; in assay [2] it was 1 to 10 µM; in assay [3] (read-out: IC50 (μM) PIM3), less than 1 µM; in assay [4] (read-out: IC50 (μM) PIM2) it was less than 1 µM.
In the case of `CSc1nc(N)cc(-c2ccncc2NC(=O)c2nc(-c3cc(C(=O)N(C)C)ccc3F)ccc2N)n1` [Example 535, 3-Amino-6-(5-dimethylcarbamoyl-2-fluoro-phenyl)-pyridine-2-carboxylic acid [4-(6-amino-2-methylsulfanyl-pyrimidin-4-yl)-pyridin-3-yl]-amide], the concentration for half-maximal inhibition (IC50) in assay [1] (read-out: PIM1 IC50) was less than 1 µM; in assay [2] it was 10 to 25 µM; in assay [3] (read-out: PIM3 IC50), less than 1 µM; in assay [4] (read-out: PIM2 IC50) it was less than 1 µM.
As for `Cc1cc(-c2ccncc2NC(=O)c2nc(-c3c(F)ccc(OC(C)C)c3F)ccc2N)cc(N)n1` [Example 538, 3-Amino-6-(2,6-difluoro-3-isopropoxy-phenyl)-pyridine-2-carboxylic acid (2′-amino-6′-methyl-[4,4′]bipyridinyl-3-yl)-amide], the half-inhibitory concentration (IC50) in assay [1] (read-out: PIM1 IC50) is less than 1 µM; in assay [2] it was 10 to 25 µM; in assay [3] (read-out: PIM3 IC50) it was less than 1 µM; in assay [4] (read-out: PIM2 IC50) it was less than 1 µM.
For the compound `CC(C)NC(=O)c1ccc(F)c(-c2ncc(N)c(C(=O)Nc3cnccc3N3CCC[C@H](N)C3)n2)c1` [Example 542, 5-Amino-2-(2-fluoro-5-isopropylcarbamoyl-phenyl)-pyrimidine-4-carboxylic acid (3-amino-3,4,5,6-tetrahydro-2H-[1,4′]bipyridinyl-3′-yl)-amide], the half-inhibitory concentration (IC50) in assay [1] (read-out: PIM1 IC50) was less than 1 µM; in assay [2], 10 to 25 µM; in assay [3] (read-out: PIM3 IC50), less than 1 µM; in assay [4] (read-out: PIM2 IC50) it was less than 1 µM.
As to `Cc1ccc(F)c(-c2ncc(N)c(C(=O)Nc3cnccc3N3CCC[C@H](N)C3)n2)c1` [Example 543, 5-Amino-2-(2-fluoro-5-methyl-phenyl)-pyrimidine-4-carboxylic acid (3-amino-3,4,5,6-tetrahydro-2H-[1,4′]bipyridinyl-3′-yl)-amide], the concentration for half-maximal inhibition (IC50) in assay [1] (read-out: PIM1 IC50) is less than 1 µM; in assay [2], 10 to 25 µM; in assay [3] (read-out: PIM3 IC50), less than 1 µM; in assay [4] (read-out: PIM2 IC50) it was less than 1 µM.
Consider `CC(=O)Nc1cccc(-c2ncc(N)c(C(=O)Nc3cnccc3N3CCC[C@H](N)C3)n2)c1` [Example 544, 2-(3-Acetylamino-phenyl)-5-amino-pyrimidine-4-carboxylic acid (3-amino-3,4,5,6-tetrahydro-2H-[1,4′]bipyridinyl-3′-yl)-amide], for which the IC50 in assay [1] (read-out: PIM1 IC50) is less than 1 µM; in assay [2], 10 to 25 µM; in assay [3] (read-out: PIM3 IC50) it was less than 1 µM; in assay [4] (read-out: PIM2 IC50) it was less than 1 µM.

As a reminder, the IC50 is the concentration that gives 50% inhibition.
